From patent US12582660B2, “Inhibitors of the RAS oncoprotein, methods of making and methods of use thereof” (University of Louisville Research Foundation, Inc., priority 2018, dated 2026)
“Also recorded” adds a separate entry of the source.

Experiments:
[1] = target: recombinant K-RAS12v protein (Homo sapiens, UniProt P01116, G12V); experiment: Thermofluor direct binding assay; conditions: for Thermofluor curve shift (direct binding): 200 uM compound/5 uM protein, K-RAS12v loaded with gamma GTPS
Chain of recombinant K-RAS12v protein (P01116 1-185 isoform P01116-2 G12V): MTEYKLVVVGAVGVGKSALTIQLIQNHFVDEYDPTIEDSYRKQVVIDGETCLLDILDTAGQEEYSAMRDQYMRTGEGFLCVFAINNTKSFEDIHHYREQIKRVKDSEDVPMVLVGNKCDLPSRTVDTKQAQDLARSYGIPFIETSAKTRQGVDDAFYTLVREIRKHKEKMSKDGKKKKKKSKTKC
Description: Direct binding of F3/F3a derivative to recombinant K-RAS protein. Thermofluor assays were performed to assay whether direct interactions could be detected between recombinant K-RAS protein and compound F3, or recombinant K-RAS protein and compound JAB-6-5. Recombinant K-RAS12v protein was loaded with gamma GTPS and used in binding assays with a ratio of: 200 uM compound/5 uM protein. Control compound C4 is targeted at a different protein and was not expected to bind RAS. The results are the derivative of three assays performed in triplicate. […] A predicted kD can be extrapolated from the curve: ˜25 uM at 55.5° C.

[2] = test system: Mia-Paca-2 (Pancreatic cancer) xenograft tumors; experiment: Tumor inhibition of xenografts, Mia-Paca-2; type: in vivo, NRG mice; conditions: Mia-Paca-2 xenograft; 12 mg/kg every three days; P value 0.014
Description: (§1) Compound F3 was tested in vivo, using cell line xenograft tumors in NRG mice. Cell lines used included Mia-Paca-2 (Pancreatic cancer), and NCI-H441 (Lung cancer). […] The results for Mia-Paca-2 are shown in FIG. 14 and FIG. 15 ([…] treated with DMSO/PBS (carrier) or F3 drug at 12 mg/kg every three days).

H1299 = experiment: 3-D soft agar drug screening, H1299; type: cell-based; conditions: H1299, Hras61, Lung
Description: (§2) The technical process of 3-D culture involves preparing molten agar at 1.6% in culture medium and adding serum to 10%. 1 ml of this agar medium is plated per well in a 12 well plate and allowed to set. This is the bottom agar and prevents any cells added to the well from touching the plastic bottom of the plate, ensuring everything remains suspended. Meanwhile the remaining stock of agar medium is kept at 42° C. to prevent setting. Target cells are then trypsinized into a single cell suspension and mixed with normal medium/drug combination. ⅔ volume molten agar medium is then added and the mixture plated onto the bottom agar. The agar/medium sets as it cools, suspending the cells in a 3D environment. Typically, within 2 weeks, tumor spheres (colonies) will form suspended in the agar. The number of colonies, or even the size, may be counted under an inverted microscope and quantified to assay tumor sphere inhibition.
(§3) The compounds synthesized were tested in the 3-D soft agar drug screening, including F3, JAB-6-176 and JAB-8-60. All the compounds tested suppressed 3-D soft agar growth, but had little effect on normal 2-D growth. […] In Table 2, below, are listed different cell lines, with the results of testing F3 in the “REMARKS” column. All the cell lines are common and publicly available from the ATCC repository (www.atcc.org/en/Products/Cells_and_Microorganisms/Cell_Lines.aspx). […]

A375 = experiment: 3-D soft agar drug screening, A375; type: cell-based; conditions: A375, B-RAF mute, melanoma; 2 uM
Description: as §2, §3

Panc-1 = experiment: 3-D soft agar drug screening, Panc-1; type: cell-based; conditions: Panc-1, K12D, pancreatic
Description: as §2, §3

[3] = test system: NCI-H441 (Lung cancer) xenograft tumors; experiment: Tumor inhibition of xenografts, NCI-H441; type: in vivo; conditions: NCI-H441 xenograft in NRG mice
Description: as §1

Mia-Paca-2 cells = experiment: Anoikis assay on polyHEMA treated wells, trypan blue exclusion; type: cell-based; conditions: after 48 hours
Description: RAS activation leads to resistance to anoikis and inhibiting RAS function re-sensitizes […] cells to anoikis. The RAS/RalGDS pathway has been implicated as a significant component of RAS mediated anoikis suppression. […] After 48 hours the cultures were assayed for cell death by trypan blue exclusion.

CaoV3 = experiment: 3-D soft agar drug screening, CaoV3; type: cell-based; conditions: CaoV3, NF1mute, ovarian
Description: as §2, §3

[4] = test system: A549 K-RAS driven lung tumor cell line; experiment: Normal growth/survival in 2-D culture on plastic, A549; type: cell-based; conditions: 10 uM
Description: (§4) Effects of the small molecule on growth in soft agar of A549 K-RAS driven lung tumor cell line and K-RAS driven pancreatic cancer cell line MiaPaCa-2 is shown. 0=carrier (DMSO). P values are less than 0.05, FIG. 5 and FIG. 6 show the effects of 10 uM of F3 on normal growth/survival in 2-D culture on plastic of the same cells. […] FIG. 7 is a graph showing that F3 is also effective against wild-type driven tumor cells, while FIG. 8 is a graph showing normal growth/survival in 2-D culture on plastic of the same cells.

[5] = Preliminary in vivo toxicity assay; set-up: species or system NRG mice; conditions: i.p. 10 mg/kg every other day for 2 weeks
Description: A preliminary in vivo toxicity assay was performed on F3. NRG mice were i.p. injected with 10 mg/kg of drug every other day for 2 weeks.

tumor cells = experiment: 3-D soft agar drug screening (cell line not stated); type: cell-based
Description: as §2, §3

[6] = test system: wild-type RAS driven tumor cells; experiment: Soft agar growth of wild-type RAS driven tumor cells; type: cell-based
Description: as §4

HTB-185 = experiment: 3-D soft agar drug screening, HTB-185; type: cell-based; conditions: HTB-185, DAB2IP deficient, Medulloblastoma
Description: as §2, §3

[7] = test system: K-RAS driven pancreatic cancer cell line MiaPaCa-2; experiment: Normal growth/survival in 2-D culture on plastic, MiaPaCa-2; type: cell-based; conditions: 10 uM
Description: as §4

SK-RC-45 = experiment: 3-D soft agar drug screening, SK-RC-45; type: cell-based; conditions: SK-RC-45, EGFR++++, kidney
Description: as §2, §3

[8] = Normal 2-D growth (cell line not stated); type: cell-based
Description: (§5) The compounds synthesized were tested in the 3-D soft agar drug screening, including F3, JAB-6-176 and JAB-8-60. All the compounds tested suppressed 3-D soft agar growth, but had little effect on normal 2-D growth. […] In Table 2, below, are listed different cell lines, with the results of testing F3 in the “REMARKS” column. All the cell lines are common and publicly available from the ATCC repository (www.atcc.org/en/Products/Cells_and_Microorganisms/Cell_Lines.aspx). NF1 mute are cells with defects in the NF1 gene (a negative regulator of RAS) causing hyper-activation of the wild type form of RAS. The same is true for DAB2IP deficient cells. EGFR+++ cells overexpress the EGFR receptor, which also results in the hyper-activation of wild type RAS,

Mia-Paca-2 = experiment: 3-D soft agar drug screening, Mia-Paca-2; type: cell-based; conditions: Mia-Paca-2, K12C, Pancreatic
Description: as §2, §3

HL-60 = experiment: Suspension culture growth, HL-60; type: cell-based; conditions: HL-60, NRASQ61L, AML
Description: as §5

S462.TY = experiment: 3-D soft agar drug screening, S462.TY; type: cell-based; conditions: NF1-mute, MPNST
Description: as §2, §3

MDA-MB-231 = experiment: 3-D soft agar drug screening, MDA-MB-231; type: cell-based; conditions: MDA-MB-231, Kras13D and deficient for NF1, Breast; cells don't grow well in soft agar
Description: as §2, §3

A549 = experiment: 3-D soft agar drug screening, A549; type: cell-based; conditions: A549, K12S, Lung
Description: as §2, §3

## Cc1ccc(NC(=O)CN(C)CC(=O)Nc2cccc(F)c2)cc1S(=O)(=O)N1CCCC1 [JAB-6-5]
[1]
  Thermofluor curve shift (direct binding): significant curve shift

## Cc1ccc(NC(=O)CN(C)CC(=O)Nc2cccc(F)c2)cc1S(=O)(=O)N1CCCCCC1 [Compound F3, N-(3-(Azepan-1-ylsulfonyl)-4-methylphenyl)-2-((2-((3-fluorophenyl)amino)-2-oxoethyl)(methyl)amino)-acetamide]
[2]
  tumor volume as compared to controls: approximately half the volume
H1299
  Soft agar growth: Soft agar growth inhibited
A375
  Soft agar growth: 10 uM, no effect at 2 uM
Panc-1
  Soft agar growth: Soft agar growth inhibited
[3]
  tumor volume as compared to controls: reduction in tumor volume
Mia-Paca-2 cells
  anoikis (cell death by trypan blue exclusion): induced high levels of anoikis
CaoV3
  Soft agar growth: Soft agar growth inhibited
[1]
  Thermofluor curve shift (direct binding): significant curve shift
[1]; at 55.5° C., read-out: predicted kD extrapolated from the curve
  Kd: ~25 µM
[4]
  cell growth in 2-D culture on plastic: no effect
[5]
  signs of pain or distress: No obvious signs of pain or distress
  weight loss: no weight loss
Tumor cells
  3-D soft agar growth: suppressed
[6]
  Effect against wild-type driven tumor cells: effective
HTB-185
  Soft agar growth: Soft agar growth inhibited
[7]
  cell growth in 2-D culture on plastic: no effect
SK-RC-45
  Soft agar growth: Soft agar growth inhibited
[8]
  normal 2-D growth: little effect
Mia-Paca-2
  Soft agar growth: specific inhibition; also recorded: Soft agar growth inhibited
HL-60
  Growth in suspension: inhibited
S462.TY
  Soft agar growth: Soft agar growth inhibited
MDA-MB-231
  Soft agar growth: inhibited.
A549
  Soft agar growth: specific inhibition; also recorded: Soft agar growth inhibited

## CCCc1ccc(NC(=O)CN(C)CC(=O)Nc2cccc(F)c2)cc1S(=O)(=O)N1CCCCCC1 [JAB-6-176]
Tumor cells
  3-D soft agar growth: suppressed
[8]
  normal 2-D growth: little effect
